Experimental data: patent US5358951A, “Angiotensin II receptor blocking 2, 3, 6 substituted quinazolinones” (American Cyanamid Company, priority 1993, dated 1994)

Tested on: vasopressor response of angiotensin II
Assay: AII Challenge: antagonism of angiotensin II vasopressor response;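 for Response Average Change: post-dose Angiotensin II-evoked rise in systolic blood pressure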
Assay type: in vivo
Conditions: for inhibition in vivo at 3 mg/kg / inhibition in vivo at 1 mg/kg: Rattus norvegicus, iv
Excerpt: Conscious Male Okamoto-Aoki SHR, 16-20 weeks old, weighing approximately 330 g are purchased from Charles River Labs (Wilmington, Mass.). Conscious rats are restrained in a supine position with elastic tape. The area at the base of the tail is locally anesthetized by subcutaneous infiltration with 2% procaine. The ventral caudal artery and vein are isolated, and a cannula made of polyethylene (PE) 10-20 tubing (fused together by heat) is passed into the lower abdominal aorta and vena cava, respectively. The cannula is secured, heparinized (1,000 I.U./ml), sealed and the wound is closed. The animals are placed in plastic restraining cages in an upright position. The cannula is attached to a Statham P23 Db pressure transducer, and pulsatile blood pressure is recorded to 10-15 minutes with a Gould Brush recorder. (Chan et al., (Drug Development Res., 18:75-94, 1989). Angiotensin II (human sequence, Sigma Chem. Co., St. Louis, Mo.) of 0.05 and 0.1 ug/kg i.v. is injected into all rats (predosing response). Then a test compound, vehicle or a known angiotensin II antagonist is administered i.v., i.p. or orally to each set of rats. The two doses of angiotensin II are given to each rat again at 30, 60, 90, 120, 180, 240 and 300 minutes post dosing the compound or vehicle. The vasopressor response of angiotensin II is measured for the increase in systolic blood pressure in mmHg. The percentage of antagonism or blockade of the vasopressor response of angiotensin II by a compound is calculated using the vasopressor response (increase in systolic blood pressure) of angiotensin II of each rat predosing the compound as 100%.

[1] = 3 mg/kg I.V., AII 0.05 mcg/kg IV, 30 min post dose
[2] = 3 mg/kg I.V., AII 0.05 mcg/kg IV, 60 min post dose
[3] = 3 mg/kg I.V., AII 0.05 mcg/kg IV, 90 min post dose
[4] = 3 mg/kg I.V., AII 0.05 mcg/kg IV, 120 min post dose
[5] = 3 mg/kg I.V., AII 0.05 mcg/kg IV, 180 min post dose
[6] = 3 mg/kg I.V., AII 0.05 mcg/kg IV, 240 min post dose
[7] = 3 mg/kg I.V., AII 0.05 mcg/kg IV, 300 min post dose
[8] = 3 mg/kg I.V., AII 0.1 mcg/kg IV, 30 min post dose
[9] = 3 mg/kg I.V., AII 0.1 mcg/kg IV, 60 min post dose
[10] = 3 mg/kg I.V., AII 0.1 mcg/kg IV, 90 min post dose
[11] = 3 mg/kg I.V., AII 0.1 mcg/kg IV, 120 min post dose
[12] = 3 mg/kg I.V., AII 0.1 mcg/kg IV, 180 min post dose
[13] = 3 mg/kg I.V., AII 0.1 mcg/kg IV, 240 min post dose
[14] = 3 mg/kg I.V., AII 0.1 mcg/kg IV, 300 min post dose
[15] = 0.5 h, 3 mg/kg I.V., AII 0.05 mcg/kg IV, 30 min post dose
[16] = 0.5 h, 3 mg/kg I.V., AII 0.1 mcg/kg IV, 30 min post dose
[17] = 1 h, 3 mg/kg I.V., AII 0.05 mcg/kg IV, 60 min post dose
[18] = 1 h, 3 mg/kg I.V., AII 0.1 mcg/kg IV, 60 min post dose
[19] = 2 h, 3 mg/kg I.V., AII 0.05 mcg/kg IV, 120 min post dose
[20] = 2 h, 3 mg/kg I.V., AII 0.1 mcg/kg IV, 120 min post dose
[21] = 3 h, 3 mg/kg I.V., AII 0.05 mcg/kg IV, 180 min post dose
[22] = 3 h, 3 mg/kg I.V., AII 0.1 mcg/kg IV, 180 min post dose
[23] = 4 h, 3 mg/kg I.V., AII 0.05 mcg/kg IV, 240 min post dose
[24] = 4 h, 3 mg/kg I.V., AII 0.1 mcg/kg IV, 240 min post dose
[25] = 5 h, 3 mg/kg I.V., AII 0.05 mcg/kg IV, 300 min post dose
[26] = 5 h, 3 mg/kg I.V., AII 0.1 mcg/kg IV, 300 min post dose
[27] = […], 3 mg/kg I.V., AII 0.05 mcg/kg IV, 90 min post dose
[28] = […], 3 mg/kg I.V., AII 0.1 mcg/kg IV, 90 min post dose

CCCCc1nc2ccc([C@@]3(C)C[C@@H]4CCCCN4O3)cc2c(=O)n1Cc1ccc(-c2ccccc2-c2nnn[nH]2)cc1 (relative stereo) [Example 67, Cis-2-Butyl-6-(hexahydro-2-methyl-2H-isoxazolo[2,3-a]pyridin-2-yl)-3-[[2'-(1H-tetrazol-5-yl)[1,1'-biphenyl]-4-yl]methyl]-4(3H)-quinazolinone]
Response Average Change [1]: 20 mmHg | Response Average Change [2]: 7.5 mmHg | Response Average Change [3]: 7.5 mmHg | Response Average Change [4]: 12.5 mmHg | Response Average Change [5]: 15 mmHg | Response Average Change [6]: 7.5 mmHg | Response Average Change [7]: 14 mmHg | Response Average Change [8]: 14 mmHg | Response Average Change [9]: 15 mmHg | Response Average Change [10]: 12.5 mmHg | Response Average Change [11]: 10 mmHg | Response Average Change [12]: 11.5 mmHg | Response Average Change [13]: 11 mmHg | Response Average Change [14]: 17.5 mmHg | inhibition in vivo at 3 mg/kg [15]: 61% | inhibition in vivo at 3 mg/kg [16]: 77% | inhibition in vivo at 3 mg/kg [17]: 85% | inhibition in vivo at 3 mg/kg [18]: 75% | inhibition in vivo at 3 mg/kg [19]: 76% | inhibition in vivo at 3 mg/kg [20]: 83% | inhibition in vivo at 3 mg/kg [21]: 71% | inhibition in vivo at 3 mg/kg [22]: 81% | inhibition in vivo at 3 mg/kg [23]: 85% | inhibition in vivo at 3 mg/kg [24]: 82% | inhibition in vivo at 3 mg/kg [25]: 73% | inhibition in vivo at 3 mg/kg [26]: 71% | inhibition in vivo at 3 mg/kg [27]: 85% | inhibition in vivo at 3 mg/kg [28]: 79%

CCCCc1nc2ccc([C@]3(CC)C[C@@H]4CCCN4O3)cc2c(=O)n1Cc1ccc(-c2ccccc2-c2nnn[nH]2)cc1 (relative stereo) [Example 72, Trans-2-butyl-6-(2-ethylhexahydropyrrolo[1,2-b]isoxazol-2-yl)-3-[[2'-(1H-tetrazol-5-yl)[1,1'-biphenyl]-4-yl]methyl]-4(3H)-quinazolinone]
Response Average Change (1 mg/kg i.v., AII 0.05 mcg/kg IV, 30 min post dose): 20 mmHg | Response Average Change (1 mg/kg i.v., AII 0.05 mcg/kg IV, 60 min post dose): 15 mmHg | Response Average Change (1 mg/kg i.v., AII 0.05 mcg/kg IV, 90 min post dose): 17.5 mmHg | Response Average Change (1 mg/kg i.v., AII 0.05 mcg/kg IV, 120 min post dose): 22.5 mmHg | Response Average Change (1 mg/kg i.v., AII 0.05 mcg/kg IV, 180 min post dose): 36.5 mmHg | Response Average Change (1 mg/kg i.v., AII 0.05 mcg/kg IV, 240 min post dose): 30 mmHg | Response Average Change (1 mg/kg i.v., AII 0.05 mcg/kg IV, 300 min post dose): 37.5 mmHg | Response Average Change (1 mg/kg i.v., AII 0.1 mcg/kg IV, 30 min post dose): 25.5 mmHg | Response Average Change (1 mg/kg i.v., AII 0.1 mcg/kg IV, 60 min post dose): 17.5 mmHg | Response Average Change (1 mg/kg i.v., AII 0.1 mcg/kg IV, 90 min post dose): 32.5 mmHg | Response Average Change (1 mg/kg i.v., AII 0.1 mcg/kg IV, 120 min post dose): 25 mmHg | Response Average Change (1 mg/kg i.v., AII 0.1 mcg/kg IV, 180 min post dose): 35 mmHg | Response Average Change (1 mg/kg i.v., AII 0.1 mcg/kg IV, 240 min post dose): 40 mmHg | Response Average Change (1 mg/kg i.v., AII 0.1 mcg/kg IV, 300 min post dose): 42.5 mmHg | inhibition in vivo at 1 mg/kg (0.5 h, 1 mg/kg i.v., AII 0.05 mcg/kg IV, 30 min post dose): 60% | inhibition in vivo at 1 mg/kg (0.5 h, 1 mg/kg i.v., AII 0.1 mcg/kg IV, 30 min post dose): 58% | inhibition in vivo at 1 mg/kg (1 h, 1 mg/kg i.v., AII 0.05 mcg/kg IV, 60 min post dose): 70% | inhibition in vivo at 1 mg/kg (1 h, 1 mg/kg i.v., AII 0.1 mcg/kg IV, 60 min post dose): 71% | inhibition in vivo at 1 mg/kg (2 h, 1 mg/kg i.v., AII 0.05 mcg/kg IV, 120 min post dose): 55% | inhibition in vivo at 1 mg/kg (2 h, 1 mg/kg i.v., AII 0.1 mcg/kg IV, 120 min post dose): 58% | inhibition in vivo at 1 mg/kg (3 h, 1 mg/kg i.v., AII 0.05 mcg/kg IV, 180 min post dose): 27% | inhibition in vivo at 1 mg/kg (3 h, 1 mg/kg i.v., AII 0.1 mcg/kg IV, 180 min post dose): 42% | inhibition in vivo at 1 mg/kg (4 h, 1 mg/kg i.v., AII 0.05 mcg/kg IV, 240 min post dose): 40% | inhibition in vivo at 1 mg/kg (5 h, 1 mg/kg i.v., AII 0.05 mcg/kg IV, 300 min post dose): 35% | inhibition in vivo at 1 mg/kg (5 h, 1 mg/kg i.v., AII 0.1 mcg/kg IV, 300 min post dose): 29% | inhibition in vivo at 1 mg/kg ([…], 1 mg/kg i.v., AII 0.05 mcg/kg IV, 90 min post dose): 65% | inhibition in vivo at 1 mg/kg ([…], 1 mg/kg i.v., AII 0.1 mcg/kg IV, 90 min post dose): 46%

CCCCc1nc2ccc([C@]3(C)C[C@@H]4CCCCN4O3)cc2c(=O)n1Cc1ccc(-c2ccccc2-c2nnn[nH]2)cc1 (relative stereo) [Example 68, Trans-2-Butyl-6-(hexahydro-2-methyl-2H-isoxazolo[2,3-a]pyridin-2-yl)-3-[[2'-(1H-tetrazol-5-yl)[1,1'-biphenyl]-4-yl]methyl]-4(3H)-quinazolinone]
Response Average Change [1]: 2.5 mmHg | Response Average Change [2]: 2.5 mmHg | Response Average Change [3]: 7.5 mmHg | Response Average Change [4]: 11 mmHg | Response Average Change [5]: 10 mmHg | Response Average Change [6]: 20 mmHg | Response Average Change [7]: 10 mmHg | Response Average Change [8]: 5 mmHg | Response Average Change [9]: 9 mmHg | Response Average Change [10]: 9 mmHg | Response Average Change [11]: 10 mmHg | Response Average Change [12]: 20 mmHg | Response Average Change [13]: 17.5 mmHg | Response Average Change [14]: 22.5 mmHg | inhibition in vivo at 3 mg/kg [15]: 95% | inhibition in vivo at 3 mg/kg [16]: 91% | inhibition in vivo at 3 mg/kg [17]: 95% | inhibition in vivo at 3 mg/kg [18]: 84% | inhibition in vivo at 3 mg/kg [19]: 79% | inhibition in vivo at 3 mg/kg [20]: 82% | inhibition in vivo at 3 mg/kg [21]: 81% | inhibition in vivo at 3 mg/kg [22]: 64% | inhibition in vivo at 3 mg/kg [23]: 61% | inhibition in vivo at 3 mg/kg [24]: 69% | inhibition in vivo at 3 mg/kg [25]: 81% | inhibition in vivo at 3 mg/kg [26]: 60% | inhibition in vivo at 3 mg/kg [27]: 85% | inhibition in vivo at 3 mg/kg [28]: 84%
